{"source": "patent US20100130597A1", "about": "“DNA-PKCS MODULATES ENERGY REGULATION AND BRAIN FUNCTION” (The United State of America, as represented by the …, priority 2007, published 2010)", "key": {"[1]": {"test": "Glucose levels, insulin tolerance and glucose tolerance tests in treated mice", "format": "in vivo", "details": "mice, summary statement", "description": "The therapeutic potential of DNA-PKcs inhibitors to treat insulin resistance and diabetes was tested in vivo using high-fat induced type 2 diabetes and obesity models. We examined the effects of DNA-PKcs inhibition by feeding C57BL6/J mice with Compound 36 (Cpd36) or vehicle. Mice were treated with Cpd36 (8 mg/kg body weight) twice daily by oral gavage for three months in all efficacy studies shown in FIGS. 40-47."}, "[2]": {"tested_on": "PI3K", "details": "related kinase, selectivity; cited from earlier work"}, "[3]": {"tested_on": "Sirt1 and PGC-1α", "test": "Sirt1 and PGC-1α expression in C2C12 myoblasts", "format": "cell-based", "description": "Increased mitochondrial function boosts energy production and physical endurance. […] Further tests were therefore conducted to ascertain whether DNA-PKcs inhibitor elevates mitochondrial biogenesis and expression of PGC-1α and Sirt, which are important for mitochondrial biogenesis. […] It is important to note that only 2.5 μM of NU7026 was required to induce a similar level of Sirt1 to that induced by 25-50 μM Resveratrol, a well-known, potent Sirt1 activator."}, "[4]": {"test": "Hot plate test, latency for pain reaction", "format": "in vivo, mice", "details": "FIG. 48E", "description": "Epidemiological studies indicate that people with mood disorders are twice as likely to have chronic pain compared to people without mood disorders (Ohayon et al., Arch. Gen. Psychiatry 60: 39-47 (2003)). Although it is possible that pain contributes to the depressed mood, it is also possible that perception of pain is increased in people with mood disorders. To determine whether SCID mice have altered pain tolerance, the latency for pain reaction to a hot plate was measured. […] (FIG. 30) and at 55° C.\nBecause tolerance to pain (Example 26) is also linked to the serotonergic pathways, measurements of the latency to pain reaction on hot plate after saline, serotonin reuptake inhibitor fluoxetine (Prozac) or serotonin antagonist GR38032F (Zofran) injection were made.\nElevated plus maze tests, light/dark chamber tests, forced swim tests (FST) and hot plate tests were performed as described earlier."}, "[5]": {"tested_on": "LKB1", "test": "LKB1 activation (LKB1 phosphorylation) in C2C12 cells", "format": "cell-based", "details": "NU7026 2.5 μM, Resveratrol 50 μM, FIG. 51A", "description": "Cells were treated with DNA-PKcs inhibitors to ascertain whether DNA-PKcs suppresses LKB1 activity in vitro."}, "[6]": {"tested_on": "MCF7 cells", "test": "Reactive oxygen species production in MCF7 cells (CM-H2DCFDA)", "format": "cell-based", "details": "NU 7026 5 μM 12 h, DNP 200 μM 10 min, Troglitazone 30 μM 4 hr, Euk-134 5 μM 3 h, MnTBAP 14 μM 3 h, FIG. 4", "from_the_text": "Measurement of intracellular reactive oxygen species was based on changes in the fluorescence intensity of redox-sensitive fluorescent probes, including CM-H2DCFDA. CM-H2DCFDA is a probe for intracellular hydrogen peroxide (Jou M J et al. J. Biomed Sci 9:507 (2002)). CM-H2DCFDA rapidly diffuses into cells, reacts with intracellular glutathione and thiols, and yields a fluorescent product that is retained inside the cell (Shanker G et al. Mol Brain Res 128:48, 2004). The fluorescence intensity of CM-H2DCFDA is therefore indicative of the amount of intracellular H2O2.\nBriefly, cells were incubated with 10 uM CM-H2DCFDA for 30 min at 37° C. The cells were then excited at the peak excitation wavelength for CM-H2DCFDA (485 nm) and emissions at 535 nm were measured with Wallac Victor multilable counter (Perkin Elmer). For glucose treatment, the total sugar content in the media was kept constant by supplementing with mannitol, which is not metabolized.\nMCF-7 cells were obtained from ATCC and grown as recommended. Confluent MCF-7 cells were incubated with serum-free DMEM medium for 3-12 h before the experiment. MCF-7 cells were then treated with DNA-PK inhibitor NU 7026 (5 μM; Calbiochem) for 12 h, DNP (200 μM; Sigma) for 10 min, Troglitazone (30 μM) for 4 hr, Euk-134 (5 μM; Eukarion) for 3 h, MnTBAP (14 μM; Calbiochem) for 3 h and Resveratrol."}, "[7]": {"tested_on": "AMPK", "test": "AMPK activation in mouse embryonic fibroblasts (wild-type, DNA-PK null, LKB1-null)", "format": "cell-based", "from_the_text": "The hypothesis that DNA-PKcs inhibition/deficiency induces activation of the LKB1-AMPK pathway was further tested using DNA-PK^−/− (null) mouse embryonic fibroblasts (MEFs) and LKB1-null MEFs treated with NU7026."}, "[8]": {"biological_target": "T1, DNA-PKcs (Homo sapiens, UniProt P78527)", "T1 construct": "endogenous in cells; host or cells: MCF7 (ATCC)", "test": "DNA-PKcs activation in MCF7 cells, immunoblot for phosphorylated Ser2056", "format": "cell-based", "details": "data not shown", "description": "MCF7 cells were obtained from the ATCC. MCF7 cells in G0 were treated with varying doses of H2O2 (FIG. 1). The cells were examined while in the G0 phase of their life cycle to mimic the post-mitotic state of cells in vivo. Low passage MCF-7 cells in G0 were exposed to varying concentrations of H2O2 for 60 minutes with or without Euk-134 or ionizing radiation (5 Gy). For Western blot analysis of DNA-PKcs activation and the activation of other signaling pathways in this study, the following antibodies were used: ACC1 (Cell Signaling); p-ACC1 (Upstate); AMP-activated protein kinase (AMPK; Cell Signaling); p-AMPK(T172) (Cell Signaling); DNA-PK (Lab Vision); p53 (Novocastra); p-DNA-PK(S2056) (Abeam); p-p53(S15) (Cell Signaling); γ-H2AX (Upstate); 53BP1 (Novus Biologicals).\nActivation of DNA-PKcs was visualized by immunoblotting cell lysates with antibody specific for phosphorylated Ser2056, which is autophosphorylated during DNA-PKcs activation (Chen et al., J. Biol. Chem. 280: 14709-15 (2005)) (FIG. 1). […] Instead, H2O2 increased DNA-PKcs activation, and such activation was abrogated by the antioxidant Euk-134 (FIG. 1), a potent synthetic superoxide dismutase and catalase mimetic (Chatterjee, Am. J. Nephrol. 24: 165-77 (2004)).\nMCF7 cells were then cultured in 25 mM glucose. Aliquots of the cultured MCF7 cells were treated with ionizing radiation and/or the DNA-PKcs-specific inhibitor NU7026. Treatment with glucose and ionizing radiation increased DNA-PKcs phosphorylation (data not shown). […] The basal activity of DNA-PKcs in MCF-7 cells in 25 mM glucose was detectable even in the absence of ionizing radiation, but this basal activity was suppressed with the DNA-PKcs-specific inhibitor NU7026 (data not shown)."}}}
{"molecule": "O=c1cc(N2CCOCC2)oc2c1ccc1ccccc12", "note": "[NU7026, 2-(morpholin-4-yl)-benzo[h]chomen-4-one]", "values": [{"measurement": "serum glucose levels", "setting": "[1]", "result": "decreased serum glucose levels"}, {"measurement": "IC50", "setting": "[2]", "result": 13, "unit": "µM"}, {"measurement": "concentration required to induce a similar level of Sirt1", "setting": "[3]", "result": 2.5, "unit": "µM"}, {"measurement": "PGC-1α and Sirt1 expression", "setting": "[3]; FIG. 49", "result": "dramatically elevated"}, {"measurement": "time remaining on a hot surface", "setting": "[4]", "result": "remain on a hot surface for longer periods of time"}, {"measurement": "pain sensation", "setting": "[4]; hot plate", "result": "decreased pain sensation"}, {"measurement": "LKB1 activation (LKB1 phosphorylation)", "setting": "[5]", "result": "caused LKB1 activation"}, {"measurement": "Reactive oxygen species production", "setting": "[6]", "result": "significantly decreased"}, {"measurement": "AMPK activation", "setting": "[7]; DNA-PK−/− MEFs, FIG. 52A", "result": "significantly enhanced"}, {"measurement": "AMPK activation", "setting": "[7]; LKB1-null MEFs, FIG. 52B", "result": "not in LKB1-null MEFs"}, {"measurement": "AMPK activation", "setting": "[7]; wild-type MEFs, FIG. 52", "result": "activated"}, {"measurement": "induction of DNA-PKcs activation by ionizing radiation", "setting": "[8]; MCF7 cells in 25 mM glucose", "result": "able to depress the induction of DNA-PKcs activation"}, {"measurement": "basal activity of DNA-PKcs", "setting": "[8]; MCF-7 cells in 25 mM glucose, no ionizing radiation", "result": "suppressed"}]}
